Measured values as given in patent publication US20020165270A1, “Use of a pharmaceutical composition for treating and/or preventing ischemia” (priority 1997, published 2002).

How the values were obtained:
[1] = tested on: brain mitochondria; assay: RCR of brain mitochondria of orally treated rats, normal conditions; type: in vivo, rat
Procedure: (§1) Different concentrations of active compounds of the invention (bilobalide) were tested on the RCR of the mitochondria which were isolated from rat brains. Five concentrations were employed: 4, 6, 8, 10 and 12 mg/kg of treated patient (rat). The rats were given these doses of bilobalide orally for 14 days. The mitochondria were isolated using the method described by Nowicki et al. (J. Cerebral Blood Flow and Metabolism, 2, pp. 33-40 (1982)). The respiration of the mitochondria is measured in a Clark oxygen electrode which is connected to a recording device. The RCR represents the respiratory control. It denotes the ratio between the consumption of oxygen in the presence of endogenous substrates (glutamate/malate) and the consumption after the ADP has been phosphorylated to ATP. This technique was developed by Chance and Williams (Nature, 175, pp. 1120-1121 (1955)). A dosedependent effect is obtained, with an increase of the RCR, of 3.7 in the case of the controls, to an RCR of 4.6 in the case of the 8 and 10 mg/kg concentrations. A maximum increase of 24% is obtained at 10 mg/kg.

[2] = tested on: brain mitochondria; assay: RCR of brain mitochondria of treated rats after 15 minute ischemia; type: in vivo, rat; details: 10 mg/kg per os for 14 days; 15 minute ischemia by decapitation; glutamate/malate; controls 3
Procedure: A 15 minute ischemia was performed on control rats and rats which have been treated with active compounds of the invention (bilobalides) for 14 days. The ischemia is performed by decapitation. The rats were treated per os with bilobalide doses of 10 mg/kg for 14 days. When the RCR is measured in the presence of glutamate/malate in the case of a 15 minute ischemia, an RCR of 3 is observed in the case of the controls, with an RCR of 3.9 being observed in the case of the treated rats. The active compound therefore has a protective action on the decrease in respiratory activity which is induced by the ischemia. This protection is manifested through the activity of complex I and of the mitochondrial transport chain. The level of respiratory control which is measured in the presence of glutamate/malate indirectly mirrors the activity of complex I of the electron transfer chain.

[3] = tested on: mitochondrial complex I; assay: Activity of mitochondrial complex I (ferricytochrome C reduction) in brain mitochondria of treated rats; type: in vivo, rat; details: 10 mg/kg per os for 14 days; after 15 minute ischemia of the brain; controls 36
Procedure: The measurement carried out on the mitochondrial complex I was performed by first of all sonicating the mitochondria in order to enable the assay substrates to gain access to the complex I. The latter is assayed by following the reduction of ferricytochrome C at 550 nm. The mitochondrial suspension, which is present in a […] K phosphate buffer, pH 7.4, containing MgCl2, 10 μm of cytochrome C and 2.5 mg of bovine albumin/ml, is sonicated for 30 seconds at 0° C. 2 mM of KCW [sic] is added and the reaction is started by adding 7.5 mM NADH. The mitochondria are incubated at 37° C. and the reduction of the ferricyanide [sic] is followed at 550 nm. A correction is made for the reduction of the cytochrome C in the presence of rotenone, which inhibits complex I. The results are expressed in μmol of ferricytochrome C reduced per minute.
The activity of complex I was measured on the mitochondria of rats which had been treated per os for 14 days with 10 mg of bilobalide/kg, and after a 15minute ischemia of the brain. An activity of 36 mU/mg of protein is obtained in the case of the control rats, whereas the mitochondria from treated rats have an activity of 44 mU/mg of protein.

[4] = tested on: liver mitochondria; assay: RCR of liver mitochondria of rats treated per os; type: in vivo; details: rat liver mitochondria; 8 mg/kg per os for 14 days; controls 7.6
Procedure: (§2) The active compound of the invention (bilobalide) was administered per os to rats for 14 days at concentrations of 8 mg/kg of patient (rat). The liver mitochondria of these rats were isolated using the method described by Remacle (J. Cell. Biol. 79, 291, 1978). […] A 10 minute ischemia was performed on the livers by perfusion in a medium consisting of 0.137 M NaCl, 5.4 mM KCl, 0.8 mM MgSO4, 11 mM glucose, 0.34 mM Na2HP03, 24.4 mM NaHCO3, 6.35 mM KH2PO4 and 8 mg of bilobalide/l. The medium is first of all degassed under an atmosphere containing 95% N2 and 5% CO2. The mitochondria are isolated and their respiratory activity is determined.

[5] = tested on: liver mitochondria; assay: RCR of liver mitochondria after 10 minute ischemia of the perfused liver; type: in vivo, rat; details: 8 mg/kg per os for 14 days; 10 minute liver ischemia, perfusion medium with 8 mg of bilobalide/l; controls 3.73
Procedure: as §2
For the controls, the rats were given water for 14 days and the livers were perfused with the same solution as for the tests.

[6] = tested on: mitochondria isolated from the livers of untreated rats; assay: RCR of mitochondria isolated from livers of untreated rats, preincubated one hour with the medicaments; type: biochemical, rat; details: for Protective effect on the RCR (%): class I molecules, final concentrations: Ginkor Fort 0.3 mg/ml, Bilobalide 0.8 μg/ml, Reparil 75 ng/ml, Naphthoquinone 10^−7 M, Praxilene 10^−7 M, one hour preincubation; for way in which the RCR is increased (class I / class II): liver mitochondria of untreated rats preincubated for one hour
Procedure: as §1
Each of the active compounds of the invention can, like bilobalide, increase the RCR of mitochondria which have been isolated from the livers of untreated rats when the mitochondria are preincubated for one hour in the presence of these medicaments. The active compounds can therefore act directly on the mitochondria.

[7] = tested on: complex I of the mitochondria; assay: Protection of complex I inhibited by Amytal, measured via the RCR; type: biochemical; details: for Protection of complex I (%): complex I 58% inhibited by 0.5 mM Amytal, 60 minute incubation, Ginkor Fort 0.3 mg/ml, Bilobalide 0.8 μg/ml, Reparil 75 ng/ml, Nafthoquinone 10^−7 M, Praxilene 10^−7 M, no medicament = 0%
Procedure: (§3) The process of the oxidative phosphorylation of ATP is a complex process which involves different enzyme complexes or electron transporters, which generate a proton gradient (complexes I, III and IV), ATP synthases (complex V), which is directly responsible for synthesizing ATP, and adenine translocase, which is the transporter which is required for importing ADP and exporting ATP (FIG. 4).
Complex I of the mitochondria was 58% inhibited by the presence of 0.5 mM Amytal. Under these conditions, the presence of the molecules at the indicated concentrations (60 minute incubation) results in an inhibition which is markedly less pronounced, with this having been expressed in percentage protection as compared with the mitochondria without medicament, which are regarded as having 0% protection.

[8] = tested on: complex III of the mitochondria; assay: Protection of complex III inhibited by a specific inhibitor, measured via the RCR; type: biochemical; details: Ginkor Fort 0.3 mg/ml, Bilobalide 0.8 μg/ml, Reparil 75 ng/ml, Nafthoquinone 10^−7 M, Praxilene 10^−7 M
Source text: as §3

Molecule | Protective effect on the RCR (%) [6] | way in which the RCR is increased (class I / class II) [6] | Protection of complex I (%) [7] [%] | Protection of complex III (%) [8] [%] | other results
CC(C)(C)[C@]1(O)CC2OC(=O)CC23C(=O)OC2OC(=O)[C@H](O)C231 (stereo partly drawn) [Bilobalide, bilobalide] | +22.7% | increase the RCR by decreasing stage 4 of respiration | 27.5 | 47.9 | maximum increase of the RCR ([1]; 10 mg/kg orally for 14 days, versus controls): 24%; RCR ([1]; rat brain mitochondria, 8 and 10 mg/kg orally for 14 days, glutamate/malate, controls 3.7): 4.6; RCR [2]: 3.9; activity of complex I [3]: 44 mU/mg of protein; RCR [4]: 13.25; RCR [5]: 5.24
o-(hydroxyethyl) rutosides [hydroxyethylrutosides] | – | increase the RCR by increasing stage 3 of respiration | – | – | –
CCC1(CCC(C)C)C(=O)NC(=O)NC1=O [Amytal] | – | – | – | – | inhibition of complex I of the mitochondria ([7]; 0.5 mM Amytal): 58%
aescin | – | increase the RCR by decreasing stage 4 of respiration | – | – | –
COc1ccc(-c2cc(=O)c3c(O)cc(O[C@@H]4O[C@H](CO[C@@H]5O[C@@H](C)[C@H](O)[C@@H](O)[C@H]5O)[C@@H](O)[C@H](O)[C@H]4O)cc3o2)cc1O [diosmin] | – | increase the RCR by decreasing stage 4 of respiration | – | – | –
O=C1C=CC(=O)c2ccccc21 [Naphthoquinone, Nafthoquinone] | +19.7% | increase the RCR by decreasing stage 4 of respiration | 14.1 | 46.6 | –
